In a melting point compilation (Tetko et al.; mined from patent text by program, amines drawn as free bases though some values may be those of a salt) one finds melting point data, which are given here for 61 compounds.

`COc1cc(OCC(O)CN2CCN(c3ccccc3NC(C)=O)CC2)cc(OC)c1OC` (stereo unspecified) returned a melting point of 128 to 130 °C. Next, `COC(=O)[C@H](Cc1ccc(OCCNC(=O)OC(C)(C)C)cc1)NC(=O)OCc1ccccc1`: 89 to 91 °C.

`CCCc1nc(Cl)c(C(=O)O)n1Cc1ccc(C2(C(=O)OCC)CC=CC2)s1` had a melting point of 114 to 115 °C.

`Cc1oc(-c2ccccc2)nc1COc1ccc(COc2cccc(CCC(=O)O)c2)cc1` yielded a melting point of 157 to 158 °C. With `Cc1noc(NS(=O)(=O)c2ccccc2-c2ccc(-c3ncco3)cc2CN(CC(F)(F)F)C(=O)C(C)(C)C)c1C` the figure was 146 to 147 °C; with `CC(C)(C)NC(=O)c1ccc(S(=O)(=O)Cl)cc1`, 179 °C; with `CCN(C(C)C)C(C)CC1=C(c2ccc(OC)cc2)CCCNC1=O` (stereo unspecified), 64 to 66 °C. Next, `COc1ccc(NC(=O)/C=C/c2cc(OC)c(OC)c(OC)c2)cc1N`: 202 to 204 °C. In turn, `Cc1cc(OCCCNCCC(N)=O)ccc1Cc1c(OC2OC(CO)C(O)C(O)C2O)n[nH]c1C(C)C` (stereo unspecified) registered a melting point of 191 to 193 °C.

Regarding `CCOC(=O)CCCOc1ccc(C(C)=O)cc1`, the melting point is 59 to 61 °C. On to `CN(C)C=NS(=O)(=O)c1c2c(O)cccc2nn1C`, for which the melting point lay within 118 to 119 °C. Next, `C=CCOc1ccc(C=Cc2ccc([N+](=O)[O-])cc2)cc1`: 114 °C. Turning to `OC(c1ccccn1)c1cc(F)ccc1F` (stereo unspecified), the melting point lay in the range of 65 to 66 °C. Next, `CCOc1nn(-c2ccc(C(F)(F)F)cn2)cc1CCCOc1cc(CCC(=O)O)n(C)n1`: 137 to 138 °C; `C[C@@H](NC(=NC#N)Nc1ccc(C#N)cc1)C(C)(C)C`: 159 to 160 °C; `COC=C(C(=O)OC)n1ccc2ccc(-c3nccc(-c4ccccc4)n3)cc21`: 85 °C.

`COC(=O)C1=C(C)NC(C)=C(C(=O)N2CCC3(CC2)CC(=O)N(OC)C3=O)C1c1cccc([N+](=O)[O-])c1` (stereo unspecified) returned a melting point of 228 to 230 °C. With `COc1cccc([C@H]2O[C@H](CC(=O)NCCc3oc(C(=O)O)cc3C(=O)O)C(=O)N(CC(C)(C)CO)c3ccc(Cl)cc32)c1OC` the figure was 155 to 157 °C; with `COC1=CC(C=O)(NC(c2ccccc2)(c2ccccc2)c2ccccc2)NC=C1` (stereo unspecified), 172 °C. With `CCC(CC)c1ccc(Cl)c2nc3n(c12)CCN3c1ccc(C(N)=O)cc1Cl`, the melting point was in the range of 225 to 229 °C.

`CC(C)(C)C(Cl)=NNc1cc(Cl)c(Cl)cc1[N+](=O)[O-]` had a melting point of 99 to 100 °C.

`NC(CF)C(=O)c1ccccc1` (stereo unspecified): the melting point lay in the range of 40 to 42 °C.

`CNC(=O)/C(=N/OC)c1ccccc1CCl` had a melting point of 72 to 74 °C. With `COc1cc(CCNC(=O)[C@@H](NS(C)(=O)=O)C(C)C)ccc1OCC#Cc1ccccc1` the figure was 130 to 132 °C; with `COc1cc(Nc2nc(-c3ccc(Cl)cc3)cc(C(F)(F)F)n2)ccc1-n1cnc(C)c1`, 202 to 204 °C. Regarding `O=[N+]([O-])c1cc(I)cnc1Cl`, the melting point lay within 77 to 79 °C. The compound `CCCc1c(OCCCCCCc2ccc(C(C)(C)C)c(OC)c2OC)ccc(C(=O)OCc2ccccc2)c1O` registered a melting point of 106 to 108 °C. Next, `CC(C)(C)C(=O)Nc1cccc(-c2ccnc3c(C(=O)c4ccco4)cnn23)c1`: 203 to 204 °C. Next, `CCCS(=O)(=O)N=C(N[N+](=O)[O-])SC`: 91 to 93 °C; `CCOC(=O)c1nocc1Cn1nnnc1-c1cccc(Cl)c1Cl`: 161 to 163 °C. The compound `COc1nc2cc([N+](=O)[O-])c(C)c(C(=O)NCC(=O)OC(C)(C)C)c2nc1OC` gave a melting point of 125 to 126 °C. Next, `Fc1cccc(F)c1-c1cncnc1`: 67 to 69 °C; `N#CC1=C(C2=CCNCC2)Nc2n[nH]cc2C1c1cccc(C#N)c1Br` (stereo unspecified): 226 °C; `COC(=O)CCC/C=C(/c1ccc(OC)c(C(=O)OC)c1)c1cc(C)c2oc(=O)n(C)c2c1`: 134 to 135 °C. With `CCN(CC)C(=O)Cc1c(-c2ccc(C)cc2)nc2c(C)cc(C)nn12` the figure was 155 to 158 °C; with `CC(C)(C)c1csc(NC(=O)c2ccn3c(=O)c(/C=C/C(=O)O)c(N4CCCC(CC(=O)NCCO)C4)nc3c2)n1` (stereo unspecified), 167 to 175 °C. `CC(C)(C)c1cc(OCC(=O)NN)cc(C(C)(C)C)c1O` returned a melting point of 141 to 142 °C.

In turn, `Nc1ccc2c(c1Br)COC2=O` returned a melting point of 176 to 180 °C. As to `CNC(=O)Nc1ccc(OCCNCC(O)c2ccc(O)cc2)cc1` (stereo unspecified), the melting point fell in the range of 155 to 160 °C.

Consider `COC(=O)CSC(C)c1ccc(-c2ccc(OC)cc2)cc1` (stereo unspecified), for which the melting point lay in the range of 59 to 61 °C. Next, `CC(C)/C=c1\[nH]c(=O)/c(=C/c2c[nH]c3ccccc23)[nH]c1=O`: over 300 °C; `CN(c1ccccc1)c1nc(N(C)c2ccccc2)c2sccc2n1`: 120 to 122 °C; `O=c1c2ccc(Cl)cc2[nH]c2c(O)nn(-c3ccc(O)c(Cl)c3)c(=O)c12`: 350 to 353 °C.

`CC(=O)c1c(-c2ccncc2)[nH]c(-c2ccncc2)c1C(F)(F)F` gave a melting point of 250 to 255 °C. With `Cc1ccc(CC2CCN(CCOc3ccc4c(c3)=NC(=S)N=4)CC2)cc1` the figure was 271 to 273 °C; with `COc1cc(COc2nn(Cc3ccccc3)cc2C(N)=O)ccc1OCc1nc(-c2ccco2)oc1C`, 160 to 161 °C. The compound `CCSc1ccc(C(=O)NCc2ccc3c(c2)C(=O)N(C2CCC(=O)NC2=O)C3=O)nn1` (stereo unspecified) gave a melting point of 205 to 207 °C.

As to `O=S(=O)(Nc1ccc2c(OCc3csc(-c4ccc(C(F)(F)F)cn4)n3)cccc2c1)C(F)(F)F`, the melting point fell in the range of 197 to 198 °C. Next, `Cn1c(=O)c2c(ncn2CC(O)CN2CCN(C(=O)c3ccco3)CC2)n(C)c1=O` (stereo unspecified): 100 °C. For the compound `O=C(O)c1cccnc1NCCSCc1nccs1`, the melting point was in the range of 133 to 134 °C. With `N#CC1=C2C(=NC1=O)c1c(Sc3ccc(N)cc3)ccc3c(Sc4ccc(N)cc4)ccc2c13` the figure was 288 to 290 °C; with `CS(=O)(=O)c1c(C(=O)c2cnoc2C2CC2)ccc(F)c1F`, 115 to 118 °C; with `O=C(O)CCCC(=O)N1CCC(C2c3ccccc3C=Cc3ccccc32)CC1`, 180 to 186 °C.

`Cc1ccc(-c2nc(NC(=O)c3nnn[nH]3)cs2)cc1` had a melting point of 228 to 230 °C.

In turn, `Nc1cc(=O)nc(Nc2ccc(Cl)cc2)n1-c1ccccc1` came in with a melting point of 233 to 237 °C. Next, `COC(=O)C1=C(C)NC(=O)N(C(C)=O)C1c1ccccc1` (stereo unspecified): 156 to 159 °C; `CCCCCC1=C(CCCCC)CC(CNC(=O)Nc2c(C(C)C)cccc2C(C)C)SC1` (stereo unspecified): 65 to 67 °C; `Cn1nnnc1SCC1=C(C(=O)O)N2C(=O)C(NC(=O)Cn3ccnc3S(C)(=O)=O)C2SC1` (stereo unspecified): 230 °C. Consider `CCOC(=O)CN(Cc1cc(F)ccc1[N+](=O)[O-])C(=O)C(F)(F)F`, for which the melting point was 60 to 63 °C.

Turning to `COc1cccc(C23CCCC2C(=O)N(Cc2ccccc2)C(=O)C3)c1` (stereo unspecified), the melting point was 75 to 77 °C. The compound `O=C(C=Cc1ccc(CNCC2CCCCC2O)cc1)Nc1ccc(-c2ccc(Cl)cc2)cc1` (stereo unspecified) yielded a melting point of 210 to 211 °C.
